Test results: US10501493B2, “Broad spectrum antibiotics” (priority 2011, dated 2019)
In brackets after ≈: the same amount, converted by molar mass. Like-named read-outs stand apart in the source and are kept apart here.

Tests used:
E. coli SPase = target: T1, E. coli SPase (Escherichia coli, UniProt P00803); test: Steady state binding constant (Kd) determination by fluorescence increase
T1 construct: Full length His-tagged E. coli SPase proteins were expressed in E. coli BL21(DE3); His-tag; made in house; host or cells: E. coli BL21(DE3)
Description: (§1) Full length His-tagged E. coli SPase proteins were expressed in E. coli BL21(DE3) containing the plasmid pET23-lepB, P. A. Smith et al. Chem Biol 2010, 1223-1231. Briefly, saturated overnight cultures grown in 20 ml of Luria-Bertani medium supplemented with ampicillin were subcultures into 1.5 L of Luria-Bertani, and shaken at 37° C. until an optical density at 600 nm of 0.4-0.5 was achieved. Protein expression was induced with Isopropyl β-D-1-thiogalactopyranoside (ITPG) at a final concentration of […], and purified using nickel affinity chromatography. Full length His-tagged S. aureus SPase protein was expressed similarly from E. coli BL21(DE3) containing the plasmid pCDF1-SaSpsB or pCDF1-SaSpsB(P29S) and purified similarly to the E. coli protein with the following exceptions. SPase protein was solubilized using 300 mM NaCl, 20 mM Tris pH 8.06, 5 mM Imidazole, 10% glycerol, 1% Triton X-100, prior to purification in Ni-NTA Superflow resin and resin bound protein was washed in a similar buffer containing 1% Elugent in place of Triton X-100 prior to protein eluted in wash buffer supplemented with 300 mM imidazole. Protein purify was judged to exceed 95% by visual inspection of SDS-PAGE followed by Comassie staining. All protein concentrations were determined by BCA assay.
(§2) Steady state binding constants (Kds) of compounds were determined by measuring an increase in fluorescence (λex=280 nm, λem=405 nm) that occurs upon binding to E. coli or S. aureus SPase protein. Two-fold serial dilutions of compounds were prepared in 100% DMSO, and compounds were diluted into binding buffer consisting of 100 mM NaCl, 20 mM Tris-HCl pH 7.4, 1 mM EDTA, 1% n-octyl-3-glucopyranoside (Anatrace), and 10% glycerol, with the final DMSO concentration equal to 1%. 70 μl of the resulting solutions containing various concentrations of compound in binding buffer were aliquoted into triplicate wells of a black polystyrene 384-well plate. 5 μl of blank solution or E. coli or S. aureus protein at concentrations of 750 or 3750 nM respectively, were added to each set of wells for a given inhibitor concentration. Plates were incubated for 14 hours and fluorescence read on an EnVision Multilable plate reader (Perkin Elmer™). Differences in fluorescence values between wells with and without protein were determined and background corrected for protein auto fluorescence. The corrected fluorescence difference data was fit to the quadratic equilibrium binding curve using the non-linear regression analysis software Solver (Frontline Systems®) run in Excel 2010, (Microsoft®), using experimentally determined quantum efficiency constants to convert fluorescence into nanomoles of protein/compound complex.

S. aureus SPase = target: T2, S. aureus SPase (Staphylococcus aureus, UniProt P0A070); test: as above
T2 construct: Full length His-tagged S. aureus SPase protein was expressed similarly; His-tag; made in house; host or cells: E. coli BL21(DE3)
Description: as §1, §2

S. pyogenes ATCC 19615 = test: In vitro antimicrobial activity, MIC by broth micro-dilution; assay type: cell-based
R. equi DSM 6939 = test: as above; assay type: cell-based
Summary of the method: (§3)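 CLSI broth micro-dilution MIC against two-fold serial compound dilutions. Inoculum came from colonies grown 24 h at 35° C. or 28° C., suspended in cation-adjusted Mueller Hinton broth at 1*10^7 CFU/ml, of which 5 μl was added per 100 μl well. LepB(P84L) is a proline-mutant SPase strain with heightened arylomycin susceptibility.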

S. pneumoniae D39 = test: as above; assay type: cell-based; details: S. pneumoniae D39
[1] = tested on: E. coli MIG1655 LepB(P84L); test: as above; assay type: cell-based
Summary of the method: as §3

[2] = tested on: S. epidermidis ATCC 12228; test: as above; assay type: cell-based
S. agalactiae COH-1 = test: as above; assay type: cell-based; details: S. agalactiae COH-1
S. aureus ATCC 29213 = test: as above; assay type: cell-based
C. glutamicum DSM 44475 = test: as above; assay type: cell-based
S. epidermidis RP62A = test: as above; assay type: cell-based; details: S. epidermidis RP62A
S. agalactiae ATCC 13813 = test: as above; assay type: cell-based
S. pyogenes M15448 = test: as above; assay type: cell-based; details: S. pyogenes M15448
Summary of the method: as §3

[3] = tested on: S. aureus NCTC-8325 SpsB(P295); test: as above; assay type: cell-based
[4] = tested on: S. epidermidis RP62A SpsIB(S29P); test: as above; assay type: cell-based
[5] = tested on: P. aeruginosa PA01 LepB(P84L); test: as above; assay type: cell-based
Summary of the method: as §3

S. pneumoniae R800 = test: as above; assay type: cell-based
Summary of the method: as §3

[6] = tested on: S. epidermidis RP62A SpsIB(S31P); test: as above; assay type: cell-based
P. aeruginosa PA01 = test: as above; assay type: cell-based
Summary of the method: as §3

E. coli MIG1655 = test: as above; assay type: cell-based
Summary of the method: as §3

[7] = S. epidermidis RP62A SpsIB(S29P)
[8] = S. epidermidis RP62A SpsIB(S31P)
[9] = Streptococcus pyogenes, ATCC19615, read-out: MIC
[10] = Rhodococcus (subgen. Prescottella) equi, DSM6939, read-out: MIC
[11] = Streptococcus pneumoniae, read-out: MIC
[12] = Staphylococcus epidermidis, ATCC12228, read-out: MIC
[13] = Streptococcus agalactiae, COH1, read-out: MIC
[14] = Staphylococcus aureus, ATCC29213, read-out: MIC
[15] = Corynebacterium glutamicum, DSM44475, read-out: MIC
[16] = Staphylococcus epidermidis, read-out: MIC
[17] = Streptococcus agalactiae, ATCC13813, read-out: MIC
[18] = Streptococcus pyogenes, read-out: MIC
[19] = Staphylococcus aureus, NCTC8325

With `CCCCCCCCCCCCCCCC(=O)N(C)[C@H](CO)C(=O)N[C@H](C)C(=O)NCC(=O)N(C)[C@@H]1C(=O)N[C@@H](C)C(=O)N[C@H](C(=O)N[C@@H](C)C(=O)NS(C)(=O)=O)Cc2ccc(O)c(c2)-c2cc1ccc2O` [Compound 23] the Kd (E. coli SPase; in vitro equilibrium Kd, read-out: Kd E. coli SPase) was 3 µM, the Kd (S. aureus SPase; in vitro equilibrium Kd, read-out: Kd S. aureus SPase) was 8.9 µM and the MIC (S. pyogenes ATCC 19615) was 16 µg/mL (≈ 15.5 µM). The MIC (R. equi DSM 6939) was over 64 µg/mL, the MIC (S. pneumoniae D39) was 8 µg/mL (≈ 7.77 µM) and the MIC ([1]; E. coli MIG1655 LepB(P84L)) was 8 µg/mL (≈ 7.77 µM). For the same compound, the MIC [2] was 8 µg/mL (≈ 7.77 µM), the MIC (S. agalactiae COH-1) was over 64 µg/mL and the MIC (S. aureus ATCC 29213) was over 64 µg/mL. It also gave an MIC (C. glutamicum DSM 44475) of 8 µg/mL (≈ 7.77 µM), an MIC (S. epidermidis RP62A) of 2 µg/mL (≈ 1.94 µM) and an MIC (S. agalactiae ATCC 13813) of 32 µg/mL (≈ 31.1 µM). The MIC (S. pyogenes M15448) was 16 µg/mL (≈ 15.5 µM), the MIC ([3]; S. aureus NCTC-8325 SpsB(P295)) was 8 µg/mL (≈ 7.77 µM) and the MIC [4, 7] was 16 µg/mL (≈ 15.5 µM). It also gave an MIC ([5]; P. aeruginosa PA01 LepB(P84L)) of over 64 µg/mL, an MIC (S. pneumoniae R800) of 8 µg/mL (≈ 7.77 µM) and an MIC [6, 8] of over 64 µg/mL.

With `CCCCCCCCCCCCCCCC(=O)N(C)[C@H](CO)C(=O)N[C@H](C)C(=O)NCC(=O)N(C)[C@@H]1C(=O)N[C@@H](C)C(=O)N[C@H](C(=O)NCC(=O)O)Cc2ccc(O)c(c2)-c2cc1ccc2O` [Compound 24] the Kd (E. coli SPase) was 1.1 µM, the Kd (S. aureus SPase) was 2.9 µM and the MIC (S. pyogenes ATCC 19615; [9]) was 8 µg/mL (≈ 8.53 µM). For the same compound, the MIC (R. equi DSM 6939; [10]) was over 64 µg/mL, the MIC (S. pneumoniae D39; [11]) was 4 µg/mL (≈ 4.26 µM) and the MIC ([1]; Escherichia coli) was 4 µg/mL (≈ 4.26 µM). It also gave an MIC [2, 12] of 32 µg/mL (≈ 34.1 µM), an MIC (S. agalactiae COH-1; [13]) of over 64 µg/mL and an MIC (S. aureus ATCC 29213; [14]) of over 64 µg/mL. The MIC (C. glutamicum DSM 44475; [15]) was 64 µg/mL (≈ 68.2 µM), the MIC (S. epidermidis RP62A; [16]) was 2 µg/mL (≈ 2.13 µM) and the MIC (S. agalactiae ATCC 13813; [17]) was 64 µg/mL (≈ 68.2 µM). The MIC (S. pyogenes M15448; [18]) was 16 µg/mL (≈ 17.1 µM), the MIC [3, 19] was 32 µg/mL (≈ 34.1 µM) and the MIC ([4]; Staphylococcus epidermidis) was over 64 µg/mL. It also gave an MIC ([5]; Pseudomonas aeruginosa) of 32 µg/mL (≈ 34.1 µM), an MIC (S. pneumoniae R800; [11]) of 8 µg/mL (≈ 8.53 µM) and an MIC ([6]; Staphylococcus epidermidis) of over 64 µg/mL.

With `CCCCCCCCCCCCCCCC(=O)N(C)[C@H](CO)C(=O)N[C@H](C)C(=O)NCC(=O)N(C)[C@@H]1C(=O)N[C@@H](C)C(=O)N[C@H](C(=O)NC(C)C=O)Cc2ccc(O)c(c2)-c2cc1ccc2O` (stereo partly drawn) [Compound 33] the MIC (S. pyogenes ATCC 19615; [9]) was 16 µg/mL (≈ 17.1 µM), the MIC (P. aeruginosa PA01; Pseudomonas aeruginosa, read-out: MIC) was over 64 µg/mL and the MIC (R. equi DSM 6939; [10]) was 64 µg/mL (≈ 68.4 µM). For the same compound, the MIC (S. pneumoniae D39; [11]) was 32 µg/mL (≈ 34.2 µM), the MIC ([1]; Escherichia coli) was 64 µg/mL (≈ 68.4 µM) and the MIC (E. coli MIG1655; Escherichia coli, MIG1655) was over 64 µg/mL. It also gave an MIC [2, 12] of over 64 µg/mL, an MIC (S. agalactiae COH-1; [13]) of 64 µg/mL (≈ 68.4 µM) and an MIC (S. aureus ATCC 29213; [14]) of over 64 µg/mL. The MIC (C. glutamicum DSM 44475; [15]) was 64 µg/mL (≈ 68.4 µM), the MIC (S. epidermidis RP62A; [16]) was 64 µg/mL (≈ 68.4 µM) and the MIC (S. agalactiae ATCC 13813; [17]) was over 64 µg/mL. The MIC (S. pyogenes M15448; [18]) was 16 µg/mL (≈ 17.1 µM), the MIC [3, 19] was 64 µg/mL (≈ 68.4 µM) and the MIC ([4]; Staphylococcus epidermidis) was 64 µg/mL (≈ 68.4 µM). It also gave an MIC ([5]; Pseudomonas aeruginosa) of over 64 µg/mL, an MIC (S. pneumoniae R800; [11]) of 32 µg/mL (≈ 34.2 µM) and an MIC ([6]; Staphylococcus epidermidis) of 64 µg/mL (≈ 68.4 µM).

`CCCCCCCCCCCCCCCC(=O)N[C@H](CC(N)=O)C(=O)N[C@H](C)C(=O)NCC(=O)N(C)[C@@H]1C(=O)N[C@@H](C)C(=O)N[C@H](C(=O)O)Cc2ccc(O)c(c2)-c2cc1ccc2O` [Compound 34] showed an MIC (S. pyogenes ATCC 19615) of over 64 µg/mL, an MIC (P. aeruginosa PA01) of over 64 µg/mL and an MIC (R. equi DSM 6939) of over 64 µg/mL. For the same compound, the MIC (S. pneumoniae D39) was over 64 µg/mL, the MIC ([1]; E. coli MIG1655 LepB(P84L)) was over 64 µg/mL and the MIC (E. coli MIG1655; E. coli MIG1655) was over 64 µg/mL. The MIC [2] was over 64 µg/mL, the MIC (S. agalactiae COH-1) was over 64 µg/mL and the MIC (S. aureus ATCC 29213) was over 64 µg/mL. It also gave an MIC (C. glutamicum DSM 44475) of over 64 µg/mL, an MIC (S. epidermidis RP62A) of over 64 µg/mL and an MIC (S. agalactiae ATCC 13813) of over 64 µg/mL. The MIC (S. pyogenes M15448) was over 64 µg/mL, the MIC ([3]; S. aureus NCTC-8325 SpsB(P295)) was over 64 µg/mL and the MIC [4, 7] was over 64 µg/mL. The MIC ([5]; P. aeruginosa PA01 LepB(P84L)) was over 64 µg/mL, the MIC (S. pneumoniae R800) was over 64 µg/mL and the MIC [6, 8] was over 64 µg/mL.
